Laboratory results as given in ChEMBL document CHEMBL1926664, “Synthesis and antiproliferative evaluation of 6-aryl-11-iminoindeno[1,2-c]quinoline derivatives” (2011).

Tests used:
MCF7 = assay: Growth inhibition of human MCF7 cells after 72 hrs by XTT assay; assay type: functional; conditions: MCF7, 72 h
MDA-MB-231 = assay: Growth inhibition of human MDA-MB-231 cells after 72 hrs by XTT assay; assay type: functional; conditions: MDA-MB-231, 72 h
A549 = assay: Growth inhibition of human A549 cells after 72 hrs by XTT assay; assay type: functional; conditions: A549, 72 h
[1] = Growth inhibition of human H1299 cells after 72 hrs by XTT assay; assay type: functional; conditions: NCI-H1299, 72 h
HepG2 = assay: Growth inhibition of human HepG2 cells after 72 hrs by XTT assay; assay type: functional; conditions: HepG2, 72 h
[2] = Growth inhibition of human Hep3B cells after 72 hrs by XTT assay; assay type: functional, Hep 3B2

| SMILES | GI50 (MCF7) | GI50 (MDA-MB-231) | GI50 (A549) | GI50 [1] | GI50 (HepG2) | GI50 [2] |
| --- | --- | --- | --- | --- | --- | --- |
| COc1ccc(-c2nc3ccccc3c3c2-c2ccc(OC)cc2/C3=N\OCCN2CCCCC2)cc1 | > 10 µM | > 10 µM | > 10000 nM | > 10 µM | > 10 µM | 8290 nM |
| Oc1ccc(-c2nc3ccc(F)cc3c3c2-c2ccc(OCCN4CCCC4)cc2/C3=N\OCCN2CCCC2)cc1 | 6.2 µM | 0.33 µM | 530 nM | 7.09 µM | 5.71 µM | 230 nM |
| CN(C)CCCO/N=C1\c2cc(O)ccc2-c2c(-c3ccc(O)cc3)nc3ccccc3c21 | 6.06 µM | 0.93 µM | 500 nM | 6.94 µM | 1.55 µM | 670 nM |
| COc1ccc(-c2nc3ccccc3c3c2-c2ccc(OC)cc2/C3=N\OCCN2CCCC2)cc1 | 6.71 µM | 5.33 µM | 5270 nM | 6.31 µM | 5.48 µM | 4680 nM |
| CN(C)CCCO/N=C1\c2cc(OCCCN(C)C)ccc2-c2c(-c3ccc(O)cc3)nc3ccccc3c21 | > 10 µM | 3.07 µM | 2100 nM | 5.3 µM | 4.96 µM | 5410 nM |
| O/N=C1\c2cc(O)ccc2-c2c(-c3ccc(O)cc3)nc3ccc(F)cc3c21 | 8.77 µM | 8.41 µM | > 10000 nM | > 10 µM | > 10 µM | 7600 nM |
| COc1ccc(-c2nc3ccc(OC)cc3c3c2-c2ccc(OC)cc2/C3=N\OCCN2CCCC2)cc1 | 6.25 µM | 5.15 µM | 6420 nM | 6.54 µM | 6.03 µM | 6170 nM |
| Oc1ccc(-c2nc3ccc(F)cc3c3c2-c2ccc(O)cc2/C3=N\OCCN2CCCC2)cc1 | 6.26 µM | 0.68 µM | 840 nM | 6.48 µM | 5.04 µM | 640 nM |
| O/N=C1\c2cc(O)ccc2-c2c(-c3ccc(O)cc3)nc3ccccc3c21 | > 10 µM | 8.47 µM | > 10000 nM | > 10 µM | > 10 µM | > 10000 nM |
| COc1ccc(-c2nc3ccc(OC)cc3c3c2-c2ccc(OC)cc2/C3=N\O)cc1 | > 10 µM | > 10 µM | > 10000 nM | > 10 µM | > 10 µM | > 10000 nM |
| CC[C@@]1(O)C(=O)OCc2c1cc1n(c2=O)Cc2cc3c(CN(C)C)c(O)ccc3nc2-1 [TOPOTECAN] | > 10 µM | 0.078 µM | – | > 10 µM | – | 220 nM |
| Oc1ccc(-c2nc3ccccc3c3c2-c2ccc(O)cc2/C3=N\OCCN2CCCC2)cc1 | 7.83 µM | 0.58 µM | 880 nM | 6.06 µM | 5.74 µM | 520 nM |
| CN(C)CCCO/N=C1\c2cc(O)ccc2-c2c(-c3ccc(OCCCN(C)C)cc3)nc3ccccc3c21 | 6.65 µM | 0.63 µM | 2030 nM | 0.69 µM | 3.77 µM | 610 nM |
| CN(C)CCCO/N=C1\c2cc(O)ccc2-c2c(-c3ccc(O)cc3)nc3ccc(F)cc3c21 | 6.28 µM | 4.74 µM | 6460 nM | 6.3 µM | 6.24 µM | 690 nM |
| CCc1c2c(nc3ccc(OC(=O)N4CCC(N5CCCCC5)CC4)cc13)-c1cc3c(c(=O)n1C2)COC(=O)[C@]3(O)CC [IRINOTECAN] | > 10 µM | 9.17 µM | > 10000 nM | > 10 µM | – | – |
| COc1ccc(-c2nc3ccc(F)cc3c3c2-c2ccc(OC)cc2/C3=N\OCCN2CCCCC2)cc1 | > 10 µM | > 10 µM | > 10000 nM | > 10 µM | > 10 µM | > 10000 nM |
| CN(C)CCCO/N=C1\c2cc(OCCCN(C)C)ccc2-c2c(-c3ccc(O)cc3)nc3ccc(F)cc3c21 | 6.25 µM | 0.67 µM | 420 nM | 0.84 µM | 0.66 µM | 560 nM |
| COc1ccc(-c2nc3ccc(F)cc3c3c2-c2ccc(OC)cc2/C3=N\O)cc1 | > 10 µM | > 10 µM | > 10000 nM | > 10 µM | > 10 µM | > 10000 nM |
| COc1ccc(-c2nc3ccc(F)cc3c3c2-c2ccc(OC)cc2/C3=N\OCCN2CCCC2)cc1 | 6.36 µM | 5.99 µM | 9240 nM | 3.15 µM | 9.46 µM | 3110 nM |
| COc1ccc(-c2nc3ccc(OC)cc3c3c2-c2ccc(OC)cc2/C3=N\OCCCN(C)C)cc1 | 6.3 µM | 6.13 µM | 6620 nM | 5.7 µM | 5.95 µM | 6490 nM |
| Oc1ccc2c(c1)/C(=N\OCCN1CCCC1)c1c-2c(-c2ccc(OCCN3CCCC3)cc2)nc2ccc(F)cc12 | 6.04 µM | 0.48 µM | 310 nM | 0.7 µM | 1.08 µM | 470 nM |
| Oc1ccc2c(c1)/C(=N\OCCN1CCCC1)c1c-2c(-c2ccc(OCCN3CCCC3)cc2)nc2ccccc12 | 5.92 µM | 0.51 µM | 540 nM | 0.57 µM | 4.11 µM | 920 nM |
| COc1ccc(-c2nc3ccccc3c3c2-c2ccc(OC)cc2/C3=N\OCCCN(C)C)cc1 | 6.57 µM | 7.01 µM | 6690 nM | 6.61 µM | 6.54 µM | 3140 nM |
| COc1ccc(-c2nc3ccccc3c3c2-c2ccc(OC)cc2/C3=N\O)cc1 | > 10 µM | > 10 µM | > 10000 nM | > 10 µM | > 10 µM | > 10000 nM |
| COc1ccc(-c2nc3ccc(F)cc3c3c2-c2ccc(OC)cc2/C3=N\OCCCN(C)C)cc1 | 6.18 µM | 0.7 µM | 910 nM | 0.61 µM | 5.75 µM | 660 nM |
| Oc1ccc(-c2nc3ccccc3c3c2-c2ccc(OCCN4CCCC4)cc2/C3=N\OCCN2CCCC2)cc1 | 6.42 µM | 0.68 µM | 790 nM | 6.51 µM | 4.09 µM | 780 nM |
